Data from patent US20220175713A1, “DEPSIDE TRIMERIC COMPOUNDS FOR SKELETAL MUSCLE MODULATION” (SOCIETE DES PRODUITS NESTLE S.A., priority 2019, published 2022).

Test system: mouse hindlimb muscles injured with cardiotoxin
Test: In vivo muscle regeneration after intramuscular cardiotoxin injury
Details: mice, oral gavage 100 mg/kg body weight once a day from one week before injury, muscles harvested 5 days after injury, vs. water control, FIG. 6
Procedure: (§1) Early phase of expansion and subsequent phase of myogenic differentiation of Muscle Stem Cells were evaluated by counting the number of Pax7+ cells (A) and myogenin+ cells (B), respectively. Data are expressed as number of cells per area of injured muscle. The size of each newly formed myofiber (C) has been measured based on the expression of the eMHC and laminin that allow to recognize and delineate these nascent myofibers. Results are shown as mean myofiber cross-sectional area (μm^2).
In order to reproduce the physiological process of muscle regeneration that occurs in adult skeletal muscles in response to injury or disease, we performed an intramuscular injection of cardiotoxin into mouse hindlimb muscles. One week prior to the induction of the muscle injury, mice were given by oral gavage gyrophoric acid (at 100 mg/kg body weight) vs. water control. […] Several myogenic markers were then measured. […]
as §1, with “(FIG. 6A)” for “(A)”, “(FIG. 6B),” for “(B),”, “(FIG. 6C)” for “(C)”, “Results are shown as mean myofiber cross-sectional area (μm^2).” left out

How did the “in vivo muscle regeneration process (Pax7+ cells, myogenin+ cells, size of newly formed myofibers)” value turn out when `Cc1cc(OC(=O)c2c(C)cc(OC(=O)c3c(C)cc(O)cc3O)cc2O)cc(O)c1C(=O)O` [gyrophoric acid, 4-[4-(2,4-dihydroxy-6-methylbenzoyl)oxy-2-hydroxy-6-methylbenzoyl]oxy-2-hydroxy-6-methylbenzoic acid] was run?
The value was “Able to Promote the In Vivo Muscle Regeneration Process”.
